Legend:
[1] = test system: Akt (P13K-Akt, upstream modulator of the mTOR pathway); experiment: Western blot of Akt phosphorylation in hippocampus of pentylenetetrazol-treated rats; assay type: in vivo, rat; conditions: for ratio of phosphorylated Akt related to total Akt: hippocampus of adult male Sprague-Dawley rats, pretreatment i.p. (stiripentol 300 mg/kg or wortmannin 2.4 mg/kg) 30 min before pentylenetetrazol 80 mg/kg s.c., sacrifice 30 min after PTZ, tween-PTZ control 1.81
Protocol: (§1) The mTOR pathway has been studied at two levels (i) an upstream level of regulation with the P13K-Akt, a modulator of the mTOR pathway and (ii) a downstream level with the ribosomal protein S6, the substrate of the S6 kinase, a direct downstream effector of the mTOR pathway. Adult male Sprague-Dawley rats (Janvier, 220-250 g, n=24, 7 weeks old) were used in this study. They were housed 2 per cage (Techniplast ref. 1291), and maintained in a 12 h light/dark cycle (light ON at 7 AM). Food and water were provided ad libitum. The experiments were conducted in accordance with the European Recommendations (directive 2010/63/EU) for the use and care of laboratory animals. The experimental protocol has been approved by the ethics committee. Pentylenetetrazol (batch MKB[…], SIGMA), 80 mg/kg in 0.9% NaCl was administered subcutaneously in an injection volume of 5 mL/kg. Wortmannin (Sigma), 2.4 mg/kg in DMSO 10% v/v in 0.9% NaCl or Stiripentol (Biocodex), 300 mg/kg in tween80 5% v/v, were injected intraperitoneally (10 mL/kg) 30 min before pentylenetetrazol administration. […] The protein concentration of each sample was determined by a BCA protein assay. […] Signals were detected by enzyme chemiluminescence (Vilber Lourmat Fusion FX5 system) and quantitatively analyzed with the Bio-1 D software (Vilber Lourmat, France). […] Each membrane was also stripped (RestoreTM western blot stripping buffer, Thermoscientific) and reprobed to detect beta-actin protein levels, a control for the total quantity of protein deposited. […] The difference between groups was assessed by a two-way ANOVA followed by a Holm-Sidak multiple comparison (factor pretreatment=tween or STP, factor treatment=NaCl or PTZ). The effect of wortmaninn was assessed by a t-test comparison between tween-pentylenetetrazol (n=5) versus wortmannin-pentylenetetrazol groups (n=3).

[2] = test system: ribosomal protein S6 (downstream effector of the mTOR pathway); experiment: Western blot of S6 protein phosphorylation in hippocampus of pentylenetetrazol-treated rats; assay type: in vivo, rat; conditions: for ratio of phosphorylated S6 related to total S6 protein: hippocampus of adult male Sprague-Dawley rats, pretreatment i.p. (stiripentol 300 mg/kg or wortmannin 2.4 mg/kg) 30 min before pentylenetetrazol 80 mg/kg s.c., sacrifice 30 min after PTZ, Veh-PTZ control 0.79
Protocol: as §1

[3] = hippocampus, rats pretreated i.p. 30 min before pentylenetetrazol 80 mg/kg s.c.

| Compound | ratio of phosphorylated Akt related to total Akt [1] | band of phosphorylated Akt in western blot (FIG. 1) [1, 3] | ratio of phosphorylated S6 related to total S6 protein [2] | band of phosphorylated S6 protein in western blot (FIG. 3) [2, 3] |
| --- | --- | --- | --- | --- |
| CC(C)(C)C(O)/C=C/c1ccc2c(c1)OCO2 (racemic) [stiripentol, 1-penten-3-ol, 1-(1,3-benzodioxol)-4,4-dimethyl] | 2.46 | strong band | 0.36 | No band was visible |
| COC[C@H]1OC(=O)c2coc3c2[C@@]1(C)C1=C(C3=O)[C@@H]2CCC(=O)[C@@]2(C)C[C@H]1OC(C)=O [wortmannin] | 0.40 | – | 0.30 | – |

From US20200179335A1, “TREATMENT OF DISEASES ASSOCIATED WITH A DYSREGULATION OF THE mTOR PATHWAY” (BIOCODEX, priority 2017, published 2020)
